Patent publication US6203824A (priority 1992, dated 2001)
Several values for one entry are separate records, joined by “and”; a condition that tells them apart may be missing. Equal values may be shown once. Read-outs that look alike come from different tables or passages of the source.

Experiments:
[1] = system: Oryzsephilus surinamensis; conditions: in vivo; cited from earlier work
[2] = system: Rhyzopertha dominica; conditions: in vivo; cited from earlier work
[3] = system: Sitophilus granarius; conditions: in vivo; cited from earlier work
[4] = system: Sitophilus oryzae; conditions: in vivo; cited from earlier work
[5] = system: Tenebroides mauritanicus; conditions: in vivo; cited from earlier work
[6] = system: Tribolium confusum; conditions: in vivo; cited from earlier work
[7] = system: Tribolium castaneum; conditions: in vivo; cited from earlier work
[8] = system: Trogoderma granarium; conditions: in vivo; cited from earlier work
[9] = 25° C.; cited from earlier work
[10] = system: grains of Australian standard white wheat and malting barley; conditions: in vivo
[11] = type: physicochemical; conditions: empty vial, 15 min
[12] = system: mould; conditions: in vivo
[13] = system: S. oryzae; set-up: species or system Sitophilus oryzae; conditions: in vivo
[14] = system: L. destructor; conditions: in vivo
[15] = system: Liposcelis bostrychophilus; conditions: in vivo
[16] = system: B. tyroni; conditions: queensland fruit fly, in vivo, inhaled
[17] = system: R. dominica; conditions: in vivo
[18] = system: S. oryzae; conditions: in vivo
[19] = moist soil
[20] = system: Mice; conditions: cited from earlier work
[21] = system: Rabbits; conditions: rabbit, in vivo; cited from earlier work
[22] = system: Cold blooded animals; conditions: in vivo; cited from earlier work
[23] = system: B. tyroni; experiment: whole plant or invertebrate; conditions: Bactrocera, inhaled or nasal, read-out: Corrected mortality
[24] = system: Coptotermes acinaciformis; experiment: whole plant or invertebrate; conditions: inhaled or nasal, 24 h, read-out: Corrected mortality

Structure (SMILES): P [Phosphine, phosphine]
- LD99 (concentration x time product) [1]: 0.96
- LD99 (concentration x time product) [2]: 0.6
- LC99 (concentration x time product) [3]: 1.01
- LD99 (concentration x time product) [4]: 0.36
- LC99 (concentration x time product) [5]: ~5.0
- LC99 (concentration x time product) [6]: 0.48
- LC90 (concentration x time product) [7]: 11.5
- 100% mort. (concentration x time product) [8]: 331.0

Structure (SMILES): S=C=S [Carbon disulphide, carbon disulphide]
- LC95 (concentration x time product) [1]: 408.0
- LC95 (concentration x time product) [2]: 294.0
- LC99 (concentration x time product) [3]: 325.0
- LC95 (concentration x time product) [4]: 300.0
- LC99 (concentration x time product) [5]: 828.00
- LC99 (concentration x time product) [6]: 560.00
- LC95 (concentration x time product) [8]: 696.0
- solubility in water [9]: 2.2 grams per litre

Structure (SMILES): ClCCCl [Ethylene dichloride, ethylene dichloride]
- LC95 (concentration x time product) [1]: 462.0
- LC95 (concentration x time product) [2]: 636.0
- LC99 (concentration x time product) [3]: 230.0
- LC95 (concentration x time product) [4]: 738.0
- LC99 (concentration x time product) [5]: 1728.0
- LC99 (concentration x time product) [6]: 365.0
- LC90 (concentration x time product) [7]: 462.0
- LC95 (concentration x time product) [8]: 2080.5

Structure (SMILES): BrCCBr [Ethylene dibromide, ethylene dibromide]
- LC95 (concentration x time product) [1]: 19.2
- LC95 (concentration x time product) [2]: 37.2
- LC99 (concentration x time product) [3]: 34.5
- LC95 (concentration x time product) [4]: 60.0
- LC99 (concentration x time product) [5]: 125.00
- LC99 (concentration x time product) [6]: 31.0
- LD95 (concentration x time product) [7]: 22.0
- LC95 (concentration x time product) [8]: 80.0

Structure (SMILES): C1CO1 [Ethylene oxide, ethylene oxide]
- LC95 (concentration x time product) [1]: 60.0
- LC95 (concentration x time product) [2]: 69.6
- LC99 (concentration x time product) [3]: 36.0
- LC95 (concentration x time product) [4]: 62.0
- LC99 (concentration x time product) [5]: 175.0
- LC99 (concentration x time product) [6]: 127.5
- LD99 (concentration x time product) [7]: 135.0
- LC95 (concentration x time product) [8]: 176.0

Structure (SMILES): O=S(=O)(F)F [Sulphuryl fluoride, sulphuryl fluoride]
- LC99 (concentration x time product) [3]: 17.5
- LC99 (concentration x time product) [5]: 81.5
- LC99 (concentration x time product) [6]: 55.0

Structure (SMILES): C=CC#N [Acrylonitrile, acrylonitrile]
- LC95 (concentration x time product) [1]: 8.4
- LC95 (concentration x time product) [2]: 8.4
- LC99 (concentration x time product) [3]: 11.0
- LC95 (concentration x time product) [4]: 10.8
- LC99 (concentration x time product) [5]: 40.0
- LC99 (concentration x time product) [6]: 19.5
- LC95 (concentration x time product) [8]: 48.0

Structure (SMILES): CBr [Methyl bromide, methyl bromide]
- LC95 (concentration x time product) [1]: 40.8
- LC95 (concentration x time product) [2]: 33.0
- LC99 (concentration x time product) [3]: 28.0
- LD99 (concentration x time product) [4]: 30.0
- LC99 (concentration x time product) [5]: 115.0
- LC99 (concentration x time product) [6]: 64.0
- LD95 (concentration x time product) [7]: 62.0
- LC95 (concentration x time product) [8]: 136.0
- solubility in water [9]: 13.4 grams per litre

Structure (SMILES): ClC(Cl)(Cl)Cl [Carbon tetrachloride, carbon tetrachloride]
- LC99 (concentration x time product) [3]: 495.0
- LC95 (concentration x time product) [4]: 220.0
- LD50 (concentration x time product) [5]: 400.00
- LC99 (concentration x time product) [6]: 025.0
- LC90 (concentration x time product) [7]: 600.0

Structure (SMILES): O=C=S [carbonyl sulphide]
- % Germination, final count (10 days) [10]: 96% and 93% and 92%
- % Germination, first count (4 days) [10]: 93% and 91% and 89%
- effect on seed germination or vigour [10]: no effect on seed germination or vigour was detected
- recovery of the calculated applied dose [11]: 98.4 per cent
- discolouration of wheat by mould [12]: no discolouration occurred
- Number of insects emerging from culture [13]: 2
- Minimum effective tested dose [14]: 120
- Corrected mortality ([14]; mite, inhaled, 6 h): 100%
- Minimum effective tested dose [15]: 22.5
- psocids dead after exposure [15]: all 200 of the psocids were dead
- Corrected mortality ([16]; 6 h): 100%
- Corrected mortality ([16]; 24 h): 100%
- No. emerging [17]: 2
- control of all immature stages of R. dominica, on average ([17]; rhyzopertha dominica, 24 h): 93.4 per cent
- No. emerged [18]: 2
- concentration as per cent of the calculated initial concentration ([19]; 2 min): 62 per cent
- concentration as per cent of the calculated initial concentration ([19]; 5 h): 18 per cent
- concentration as per cent of the calculated initial concentration ([19]; 20 h): 5.9 per cent
- solubility in water [9]: 1.4 grams per litre
- time to death ([20]; 1200 ppm): 35 min
- time to death ([20]; 2900 ppm): 11/2
- time to death ([20]; 8900 ppm): 3/4
- concentration in air above which mice die quickly ([20]; mouse, in vivo): more than 0.3 per cent
- effects after exposure ([20]; mouse, in vivo): no perceptible effects
- concentration in air above which rabbits die quickly [21]: more than 0.3 per cent
- effects after exposure [21]: some ill effects
- resistance compared with warm-blooded animals [22]: more resistance
- mortality at 120 mg h/L ([23]; 6 h): 12.6%
- mortality at 150 mg h/L ([23]; 6 h): 13.5%
- mortality at 210 mg h/L ([23]; 6 h): 100%
- mortality at 300 mg h/L ([23]; 6 h): 91.7%
- mortality at 360 mg h/L ([23]; 6 h): 100%
- mortality at 480 mg h/L ([23]; 6 h): 99.2%
- mortality at 600 mg h/L ([23]; 6 h): 100%
- mortality at 720 mg h/L ([23]; 6 h): 99.7%
- mortality at 870 mg h/L ([23]; 6 h): 93.3%
- mortality at 120 mg h/L ([23]; 24 h): 37.1%
- mortality at 180 mg h/L ([23]; 24 h): 4.9%
- mortality at 240 mg h/L ([23]; 24 h): 19.5%
- mortality at 366 mg h/L ([23]; 24 h): 53.3%
- mortality at 420 mg h/L ([23]; 24 h): 88.8%
- mortality at 480 mg h/L ([23]; 24 h): 98.3%
- mortality at 540 mg h/L ([23]; 24 h): 98.3%
- mortality at 600 mg h/L ([23]; 24 h): 100%
- mortality at 192 mg h/L [24]: 0%
- mortality at 600 mg h/L [24]: 100%
